Experimental data reported in PubChem BioAssay (NCI).
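These data come from cells grown in 96-well plates and exposed to compound for 48 hours at five concentrations. GI50 = concentration required for 50% inhibition of growth. The concentration for full growth arrest is given as TGI.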

Experiments:
Test in all cases: inhibition of tumour cell growth, NCI panel, 48 h
IGROV1 ovarian = tested on: IGROV1 ovarian
SNB-75 CNS = tested on: SNB-75 CNS
HCC-2998 colon = tested on: HCC-2998 colon
SK-MEL-28 melanoma = tested on: SK-MEL-28 melanoma
HS 578T breast = tested on: HS 578T breast
HCT-15 colon = tested on: HCT-15 colon
MALME-3M melanoma = tested on: MALME-3M melanoma
OVCAR-8 ovarian = tested on: OVCAR-8 ovarian
CCRF-CEM leukemia = tested on: CCRF-CEM leukemia
HT29 colon = tested on: HT29 colon
PC-3 prostate = tested on: PC-3 prostate
HOP-62 NSCLC = tested on: HOP-62 NSCLC
OVCAR-5 ovarian = tested on: OVCAR-5 ovarian
SF-295 CNS = tested on: SF-295 CNS
T-47D breast = tested on: T-47D breast
NCI-H23 lung = tested on: NCI-H23 lung
HL-60(TB) leukemia = tested on: HL-60(TB) leukemia
NCI/ADR-RES ovarian = tested on: NCI/ADR-RES ovarian
TK-10 renal = tested on: TK-10 renal
MCF7 breast = tested on: MCF7 breast
SF-539 CNS = tested on: SF-539 CNS
OVCAR-3 ovarian = tested on: OVCAR-3 ovarian
MDA-MB-231 breast = tested on: MDA-MB-231 breast
A549 NSCLC = tested on: A549 NSCLC
NCI-H460 lung = tested on: NCI-H460 lung
RXF 393 renal = tested on: RXF 393 renal
SN12C renal = tested on: SN12C renal
UO-31 renal = tested on: UO-31 renal
OVCAR-4 ovarian = tested on: OVCAR-4 ovarian
ACHN renal = tested on: ACHN renal
A498 renal = tested on: A498 renal
RPMI-8226 leukemia = tested on: RPMI-8226 leukemia
BT-549 breast = tested on: BT-549 breast
COLO 205 colon = tested on: COLO 205 colon
CAKI-1 renal = tested on: CAKI-1 renal
SF-268 CNS = tested on: SF-268 CNS
M14 melanoma = tested on: M14 melanoma
UACC-257 melanoma = tested on: UACC-257 melanoma
HOP-92 NSCLC = tested on: HOP-92 NSCLC
EKVX NSCLC = tested on: EKVX NSCLC
MOLT-4 leukemia = tested on: MOLT-4 leukemia
786-0 renal = tested on: 786-0 renal
NCI-H226 lung = tested on: NCI-H226 lung
SNB-19 CNS = tested on: SNB-19 CNS
UACC-62 melanoma = tested on: UACC-62 melanoma
DU-145 prostate = tested on: DU-145 prostate
SW-620 colon = tested on: SW-620 colon
LOX IMVI melanoma = tested on: LOX IMVI melanoma
KM12 colon = tested on: KM12 colon
SK-MEL-2 melanoma = tested on: SK-MEL-2 melanoma

Q: With COc1ccc2c(c1)oc1c(C)c3c(c(C)c12)C(=O)N(N)C3=O as the compound, how does the GI50 (IGROV1 ovarian) read?
A: The GI50 was greater than 100 µM.

Q: What about the TGI (IGROV1 ovarian) of the same compound?
A: The TGI was greater than 100 µM.

Q: And the GI50 (SNB-75 CNS)?
A: The GI50 was 4.37 µM.

Q: And the TGI (SNB-75 CNS)?
A: Its TGI is greater than 100 µM.

Q: What about the GI50 (HCC-2998 colon) of the same compound?
A: Its GI50 is greater than 100 µM.

Q: And the TGI (HCC-2998 colon)?
A: Its TGI is greater than 100 µM.

Q: And the GI50 (SK-MEL-28 melanoma)?
A: Its GI50 is greater than 100 µM.

Q: What about the TGI (SK-MEL-28 melanoma) of the same compound?
A: The TGI was greater than 100 µM.

Q: And the GI50 (HS 578T breast)?
A: The GI50 was 32.6 µM.

Q: And the TGI (HS 578T breast)?
A: Its TGI is greater than 100 µM.

Q: And the GI50 (HCT-15 colon)?
A: Its GI50 is greater than 100 µM.

Q: What about the TGI (HCT-15 colon) of the same compound?
A: Its TGI is greater than 100 µM.

Q: What about the GI50 (MALME-3M melanoma) of the same compound?
A: The GI50 was greater than 100 µM.

Q: What about the TGI (MALME-3M melanoma) of the same compound?
A: The TGI was greater than 100 µM.

Q: What about the GI50 (OVCAR-8 ovarian) of the same compound?
A: The GI50 was 7.89 µM.

Q: What about the TGI (OVCAR-8 ovarian) of the same compound?
A: The TGI was greater than 100 µM.

Q: What about the GI50 (CCRF-CEM leukemia) of the same compound?
A: Its GI50 is greater than 100 µM.

Q: And the TGI (CCRF-CEM leukemia)?
A: Its TGI is greater than 100 µM.

Q: What about the GI50 (HT29 colon) of the same compound?
A: The GI50 was greater than 100 µM.

Q: What about the TGI (HT29 colon) of the same compound?
A: Its TGI is greater than 100 µM.

Q: What about the GI50 (PC-3 prostate) of the same compound?
A: The GI50 was greater than 100 µM.

Q: And the TGI (PC-3 prostate)?
A: The TGI was greater than 100 µM.

Q: What about the GI50 (HOP-62 NSCLC) of the same compound?
A: Its GI50 is 25 µM.

Q: What about the TGI (HOP-62 NSCLC) of the same compound?
A: The TGI was greater than 100 µM.

Q: And the GI50 (OVCAR-5 ovarian)?
A: The GI50 was greater than 100 µM.

Q: And the TGI (OVCAR-5 ovarian)?
A: Its TGI is greater than 100 µM.

Q: What about the GI50 (SF-295 CNS) of the same compound?
A: The GI50 was greater than 100 µM.

Q: And the TGI (SF-295 CNS)?
A: The TGI was greater than 100 µM.

Q: And the GI50 (T-47D breast)?
A: Its GI50 is greater than 100 µM.

Q: What about the TGI (T-47D breast) of the same compound?
A: The TGI was greater than 100 µM.

Q: And the GI50 (NCI-H23 lung)?
A: Its GI50 is greater than 100 µM.

Q: And the TGI (NCI-H23 lung)?
A: The TGI was greater than 100 µM.

Q: What about the GI50 (HL-60(TB) leukemia) of the same compound?
A: The GI50 was greater than 100 µM.

Q: What about the TGI (HL-60(TB) leukemia) of the same compound?
A: The TGI was greater than 100 µM.

Q: And the GI50 (NCI/ADR-RES ovarian)?
A: Its GI50 is greater than 100 µM.

Q: And the TGI (NCI/ADR-RES ovarian)?
A: The TGI was greater than 100 µM.

Q: And the GI50 (TK-10 renal)?
A: The GI50 was greater than 100 µM.

Q: And the TGI (TK-10 renal)?
A: The TGI was greater than 100 µM.

Q: What about the GI50 (MCF7 breast) of the same compound?
A: Its GI50 is 50.7 µM.

Q: What about the TGI (MCF7 breast) of the same compound?
A: Its TGI is greater than 100 µM.

Q: And the GI50 (SF-539 CNS)?
A: Its GI50 is 78.8 µM.

Q: What about the TGI (SF-539 CNS) of the same compound?
A: Its TGI is greater than 100 µM.

Q: What about the GI50 (OVCAR-3 ovarian) of the same compound?
A: The GI50 was greater than 100 µM.

Q: What about the TGI (OVCAR-3 ovarian) of the same compound?
A: The TGI was greater than 100 µM.

Q: What about the GI50 (MDA-MB-231 breast) of the same compound?
A: Its GI50 is 61.9 µM.

Q: What about the TGI (MDA-MB-231 breast) of the same compound?
A: The TGI was greater than 100 µM.

Q: What about the GI50 (A549 NSCLC) of the same compound?
A: Its GI50 is greater than 100 µM.

Q: What about the TGI (A549 NSCLC) of the same compound?
A: Its TGI is greater than 100 µM.

Q: And the GI50 (NCI-H460 lung)?
A: The GI50 was 3.49 µM.

Q: What about the TGI (NCI-H460 lung) of the same compound?
A: Its TGI is greater than 100 µM.

Q: What about the GI50 (RXF 393 renal) of the same compound?
A: Its GI50 is 8.21 µM.

Q: And the TGI (RXF 393 renal)?
A: Its TGI is greater than 100 µM.

Q: What about the GI50 (SN12C renal) of the same compound?
A: The GI50 was greater than 100 µM.

Q: What about the TGI (SN12C renal) of the same compound?
A: The TGI was greater than 100 µM.

Q: What about the GI50 (UO-31 renal) of the same compound?
A: Its GI50 is greater than 100 µM.

Q: And the TGI (UO-31 renal)?
A: The TGI was greater than 100 µM.

Q: And the GI50 (OVCAR-4 ovarian)?
A: The GI50 was greater than 100 µM.

Q: What about the TGI (OVCAR-4 ovarian) of the same compound?
A: The TGI was greater than 100 µM.

Q: And the GI50 (ACHN renal)?
A: The GI50 was 7.53 µM.

Q: What about the TGI (ACHN renal) of the same compound?
A: Its TGI is greater than 100 µM.

Q: What about the GI50 (A498 renal) of the same compound?
A: The GI50 was 4.25 µM.

Q: What about the TGI (A498 renal) of the same compound?
A: The TGI was greater than 100 µM.

Q: And the GI50 (RPMI-8226 leukemia)?
A: Its GI50 is greater than 100 µM.

Q: What about the TGI (RPMI-8226 leukemia) of the same compound?
A: Its TGI is greater than 100 µM.

Q: What about the GI50 (BT-549 breast) of the same compound?
A: Its GI50 is 5.2 µM.

Q: What about the TGI (BT-549 breast) of the same compound?
A: The TGI was greater than 100 µM.

Q: What about the GI50 (COLO 205 colon) of the same compound?
A: The GI50 was greater than 100 µM.

Q: And the TGI (COLO 205 colon)?
A: Its TGI is greater than 100 µM.

Q: What about the GI50 (CAKI-1 renal) of the same compound?
A: The GI50 was greater than 100 µM.

Q: What about the TGI (CAKI-1 renal) of the same compound?
A: The TGI was greater than 100 µM.

Q: And the GI50 (SF-268 CNS)?
A: Its GI50 is 21.9 µM.

Q: And the TGI (SF-268 CNS)?
A: The TGI was greater than 100 µM.

Q: What about the GI50 (M14 melanoma) of the same compound?
A: The GI50 was greater than 100 µM.

Q: And the TGI (M14 melanoma)?
A: The TGI was greater than 100 µM.

Q: What about the GI50 (UACC-257 melanoma) of the same compound?
A: Its GI50 is greater than 100 µM.

Q: And the TGI (UACC-257 melanoma)?
A: The TGI was greater than 100 µM.

Q: What about the GI50 (HOP-92 NSCLC) of the same compound?
A: The GI50 was greater than 100 µM.

Q: And the TGI (HOP-92 NSCLC)?
A: Its TGI is greater than 100 µM.

Q: And the GI50 (EKVX NSCLC)?
A: The GI50 was greater than 100 µM.

Q: And the TGI (EKVX NSCLC)?
A: The TGI was greater than 100 µM.

Q: What about the GI50 (MOLT-4 leukemia) of the same compound?
A: Its GI50 is 23.4 µM.

Q: What about the TGI (MOLT-4 leukemia) of the same compound?
A: The TGI was greater than 100 µM.

Q: What about the GI50 (786-0 renal) of the same compound?
A: The GI50 was 22.7 µM.

Q: And the TGI (786-0 renal)?
A: Its TGI is greater than 100 µM.

Q: And the GI50 (NCI-H226 lung)?
A: Its GI50 is 40.4 µM.

Q: What about the TGI (NCI-H226 lung) of the same compound?
A: Its TGI is greater than 100 µM.

Q: What about the GI50 (SNB-19 CNS) of the same compound?
A: Its GI50 is greater than 100 µM.

Q: And the TGI (SNB-19 CNS)?
A: Its TGI is greater than 100 µM.

Q: And the GI50 (UACC-62 melanoma)?
A: Its GI50 is greater than 100 µM.

Q: And the TGI (UACC-62 melanoma)?
A: Its TGI is greater than 100 µM.

Q: And the GI50 (DU-145 prostate)?
A: Its GI50 is greater than 100 µM.

Q: What about the TGI (DU-145 prostate) of the same compound?
A: Its TGI is greater than 100 µM.

Q: And the GI50 (SW-620 colon)?
A: Its GI50 is greater than 100 µM.

Q: What about the TGI (SW-620 colon) of the same compound?
A: The TGI was greater than 100 µM.

Q: And the GI50 (LOX IMVI melanoma)?
A: The GI50 was greater than 100 µM.

Q: And the TGI (LOX IMVI melanoma)?
A: Its TGI is greater than 100 µM.

Q: And the GI50 (KM12 colon)?
A: Its GI50 is greater than 100 µM.

Q: What about the TGI (KM12 colon) of the same compound?
A: The TGI was greater than 100 µM.

Q: And the GI50 (SK-MEL-2 melanoma)?
A: Its GI50 is greater than 100 µM.

Q: And the TGI (SK-MEL-2 melanoma)?
A: Its TGI is greater than 100 µM.
